In brackets after ≈: the same amount, converted by molar mass. Each block holds one compound with its values, some of them ahead of it.
Assays:
[1] = test system: Staphylococcus aureus; assay: Antibacterial activity against Staphylococcus aureus ATCC6538 after 24 hrs by MTT assay; assay type: functional; settings: ATCC6538, 24 h
[2] = biological target: T1, 3-oxoacyl-[acyl-carrier-protein] synthase 3 (Escherichia coli, UniProt C3TDZ2); assay: Inhibition of N-terminal His-tagged Escherichia coli FabH expressed in Escherichia coli BL21 (DE3) using [3H]acetyl-coA after 25 mins by liquid scintillation counting
T1 sequence (C3TDZ2 whole entry): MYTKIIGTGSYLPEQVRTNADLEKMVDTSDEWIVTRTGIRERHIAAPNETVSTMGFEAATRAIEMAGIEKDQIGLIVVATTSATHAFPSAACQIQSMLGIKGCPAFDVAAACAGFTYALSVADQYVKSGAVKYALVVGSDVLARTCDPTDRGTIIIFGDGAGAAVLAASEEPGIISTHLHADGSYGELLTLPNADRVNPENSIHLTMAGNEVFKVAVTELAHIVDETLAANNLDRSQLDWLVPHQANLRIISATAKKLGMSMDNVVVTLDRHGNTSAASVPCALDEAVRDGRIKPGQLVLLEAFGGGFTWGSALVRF

[3] = test system: Escherichia coli; assay: Antibacterial activity against Escherichia coli ATCC35218 after 24 hrs by MTT assay; assay type: functional; settings: ATCC35218, 24 h
[4] = Toxicity in erythrocytes assessed as hemolytic activity; assay type: cell-based; settings: erythrocyte
[5] = test system: Pseudomonas aeruginosa; assay: Antibacterial activity against Pseudomonas aeruginosa ATCC13525 after 24 hrs by MTT assay; assay type: functional; settings: ATCC13525, 24 h
[6] = test system: Bacillus subtilis; assay: Antibacterial activity against Bacillus subtilis ATCC6633 after 24 hrs by MTT assay; assay type: functional; settings: ATCC6633, 24 h

Structure (SMILES): Cc1ccc(/C=C/C(=O)OC(C)Cn2c([N+](=O)[O-])cnc2C)cc1 (stereo unspecified)
MIC [1]: > 100 µg/mL
MIC [3]: 100 µg/mL (≈ 304 µM)
MIC [5]: 50 µg/mL (≈ 152 µM)
MIC [6]: > 100 µg/mL

Structure (SMILES): COc1ccc(/C=C/C(=O)OC(C)Cn2c([N+](=O)[O-])cnc2C)cc1 (stereo unspecified)
MIC [1]: 50 µg/mL (≈ 145 µM)
MIC [3]: > 100 µg/mL
MIC [5]: > 100 µg/mL
MIC [6]: 50 µg/mL (≈ 145 µM)

Structure (SMILES): Cc1ncc([N+](=O)[O-])n1CC(C)OC(=O)/C=C/c1cccc2ccccc12 (stereo unspecified)
MIC [1]: 50 µg/mL (≈ 137 µM)
IC50 [2]: 48.9 µM
MIC [3]: 25 µg/mL (≈ 68.4 µM)
MHC [4]: > 10 mg/mL
MIC [5]: 50 µg/mL (≈ 137 µM)
MIC [6]: 25 µg/mL (≈ 68.4 µM)

Structure (SMILES): Cc1ncc([N+](=O)[O-])n1CC(C)OC(=O)/C=C/c1ccc2ccccc2c1 (stereo unspecified)
MIC [1]: 100 µg/mL (≈ 274 µM)
MIC [3]: 50 µg/mL (≈ 137 µM)
MIC [5]: 50 µg/mL (≈ 137 µM)
MIC [6]: 50 µg/mL (≈ 137 µM)

Structure (SMILES): Cc1ncc([N+](=O)[O-])n1CC(C)OC(=O)/C=C/c1cccs1 (stereo unspecified)
MIC [1]: 50 µg/mL (≈ 156 µM)
MIC [3]: 50 µg/mL (≈ 156 µM)
MIC [5]: 50 µg/mL (≈ 156 µM)
MIC [6]: > 100 µg/mL

Structure (SMILES): Cc1ncc([N+](=O)[O-])n1CC(C)OC(=O)/C=C/c1ccccc1 (stereo unspecified)
MIC [1]: > 100 µg/mL
Ki [2]: 1.32 pM
MIC [3]: > 100 µg/mL
MIC [5]: > 100 µg/mL
MIC [6]: > 100 µg/mL

Structure (SMILES): Cc1ncc([N+](=O)[O-])n1CC(C)OC(=O)/C=C/c1ccccc1F (stereo unspecified)
MIC [1]: > 100 µg/mL
MIC [3]: > 100 µg/mL
MIC [5]: > 100 µg/mL
MIC [6]: > 100 µg/mL

Structure (SMILES): Cc1ncc([N+](=O)[O-])n1CC(C)OC(=O)/C=C/c1ccccc1Cl (stereo unspecified)
MIC [1]: 50 µg/mL (≈ 143 µM)
MIC [3]: 50 µg/mL (≈ 143 µM)
MIC [5]: 25 µg/mL (≈ 71.5 µM)
MIC [6]: 50 µg/mL (≈ 143 µM)

Structure (SMILES): Cc1ncc([N+](=O)[O-])n1CC(C)OC(=O)/C=C/c1ccccc1Br (stereo unspecified)
MIC [1]: 25 µg/mL (≈ 63.4 µM)
IC50 [2]: 40.1 µM
MIC [3]: 25 µg/mL (≈ 63.4 µM)
MHC [4]: > 10 mg/mL
MIC [5]: 25 µg/mL (≈ 63.4 µM)
MIC [6]: 50 µg/mL (≈ 127 µM)

Structure (SMILES): COc1ccccc1/C=C/C(=O)OC(C)Cn1c([N+](=O)[O-])cnc1C (stereo unspecified)
MIC [1]: > 100 µg/mL
Ki [2]: 1.79 pM
MIC [3]: > 100 µg/mL
MIC [5]: > 100 µg/mL
MIC [6]: > 100 µg/mL

Structure (SMILES): COc1cccc(/C=C/C(=O)OC(C)Cn2c([N+](=O)[O-])cnc2C)c1 (stereo unspecified)
MIC [1]: > 100 µg/mL
Ki [2]: 2.73 pM
MIC [3]: > 100 µg/mL
MIC [5]: > 100 µg/mL
MIC [6]: > 100 µg/mL

Structure (SMILES): Cc1ncc([N+](=O)[O-])n1CC(C)OC(=O)/C=C/c1ccc(F)cc1 (stereo unspecified)
MIC [1]: 100 µg/mL (≈ 300 µM)
MIC [3]: 50 µg/mL (≈ 150 µM)
MIC [5]: 50 µg/mL (≈ 150 µM)
MIC [6]: 50 µg/mL (≈ 150 µM)

Structure (SMILES): O=C(O)/C=C/c1ccccc1 [CINNAMIC ACID]
IC50 [2]: 43.4 µM
MHC [4]: > 10 mg/mL

Structure (SMILES): NC[C@H]1O[C@H](O[C@H]2[C@H](O)[C@@H](O[C@H]3O[C@H](CO)[C@@H](O)[C@H](N)[C@H]3O)[C@H](N)C[C@@H]2N)[C@H](O)[C@@H](O)[C@@H]1O [KANAMYCIN]
MIC [1]: 1.56 µg/mL (≈ 3.22 µM)
MIC [3]: 3.13 µg/mL (≈ 6.46 µM)
MIC [5]: 3.13 µg/mL (≈ 6.46 µM)
MIC [6]: 1.56 µg/mL (≈ 3.22 µM)

Structure (SMILES): Cc1ncc([N+](=O)[O-])n1CC(C)O (stereo unspecified) [SECNIDAZOLE]
IC50 [2]: 28.5 µM
MHC [4]: > 10 mg/mL

More lines, in order of falling MIC [1], values ahead:

MIC [1]: 25 µg/mL (≈ 71.5 µM)
IC50 [2]: 34.3 µM
MIC [3]: 12.5 µg/mL (≈ 35.7 µM)
MIC [5]: 25 µg/mL (≈ 71.5 µM)
MIC [6]: 12.5 µg/mL (≈ 35.7 µM)
Structure (SMILES): Cc1ncc([N+](=O)[O-])n1CC(C)OC(=O)/C=C/c1ccc(Cl)cc1 (stereo unspecified)
MHC [4]: > 10 mg/mL

MIC [1]: 12.5 µg/mL (≈ 32.5 µM)
IC50 [2]: 9.4 µM
MIC [3]: 3.13 µg/mL (≈ 8.15 µM)
MIC [5]: 6.25 µg/mL (≈ 16.3 µM)
MIC [6]: 6.25 µg/mL (≈ 16.3 µM)
Structure (SMILES): Cc1ncc([N+](=O)[O-])n1CC(C)OC(=O)/C=C/c1ccc(Cl)cc1Cl (stereo unspecified)
MHC [4]: > 10 mg/mL

MIC [1]: 12.5 µg/mL (≈ 31.7 µM)
IC50 [2]: 27.5 µM
MIC [3]: 12.5 µg/mL (≈ 31.7 µM)
MIC [5]: 12.5 µg/mL (≈ 31.7 µM)
MIC [6]: 25 µg/mL (≈ 63.4 µM)
Structure (SMILES): Cc1ncc([N+](=O)[O-])n1CC(C)OC(=O)/C=C/c1cccc(Br)c1 (stereo unspecified)
MHC [4]: > 10 mg/mL

MIC [1]: 6.25 µg/mL (≈ 17.4 µM)
IC50 [2]: 19.8 µM
MIC [3]: 6.25 µg/mL (≈ 17.4 µM)
MIC [5]: 6.25 µg/mL (≈ 17.4 µM)
MIC [6]: 12.5 µg/mL (≈ 34.9 µM)
Structure (SMILES): Cc1ncc([N+](=O)[O-])n1CC(C)OC(=O)/C=C/c1ccc(N(C)C)cc1 (stereo unspecified)
MHC [4]: > 10 mg/mL

MIC [1]: 6.25 µg/mL (≈ 18.8 µM)
IC50 [2]: 8.2 µM
MIC [3]: 3.13 µg/mL (≈ 9.39 µM)
MIC [5]: 3.13 µg/mL (≈ 9.39 µM)
MIC [6]: 6.25 µg/mL (≈ 18.8 µM)
Structure (SMILES): Cc1ncc([N+](=O)[O-])n1CC(C)OC(=O)/C=C/c1cccc(F)c1 (stereo unspecified)
MHC [4]: > 10 mg/mL

MIC [1]: 3.13 µg/mL (≈ 7.94 µM)
IC50 [2]: 15.6 µM
MIC [3]: 6.25 µg/mL (≈ 15.9 µM)
MIC [5]: 6.25 µg/mL (≈ 15.9 µM)
MIC [6]: 3.13 µg/mL (≈ 7.94 µM)
Structure (SMILES): Cc1ncc([N+](=O)[O-])n1CC(C)OC(=O)/C=C/c1ccc(Br)cc1 (stereo unspecified)
MHC [4]: > 10 mg/mL

MIC [1]: 3.13 µg/mL (≈ 7.43 µM)
IC50 [2]: 6.7 µM
MIC [3]: 3.13 µg/mL (≈ 7.43 µM)
MIC [5]: 6.25 µg/mL (≈ 14.8 µM)
MIC [6]: 6.25 µg/mL (≈ 14.8 µM)
Structure (SMILES): Cc1ncc([N+](=O)[O-])n1CC(C)OC(=O)/C=C/c1ccc(OCc2ccccc2)cc1 (stereo unspecified)
MHC [4]: > 10 mg/mL

MIC [1]: 1.56 µg/mL (≈ 3.99 µM)
IC50 [2]: 2.5 µM
MIC [3]: 1.56 µg/mL (≈ 3.99 µM)
MIC [5]: 3.13 µg/mL (≈ 8 µM)
MIC [6]: 6.25 µg/mL (≈ 16 µM)
Structure (SMILES): Cc1ncc([N+](=O)[O-])n1CC(C)OC(=O)/C=C/c1ccc(-c2ccccc2)cc1 (stereo unspecified)
MHC [4]: > 10 mg/mL
